Source: patent US10828379B2, “In vivo differentiation of relative oxygen levels and tumor necrosis using divalent europium” (WAYNE STATE UNIVERSITY, priority 2015, dated 2020)

What was measured:
4T1 mammary carcinoma = assay: In vivo T1-weighted MRI after intratumoral injection, with histological staining; parameters: species or system mouse; settings: bladder, liver, kidneys; Gd control 50 μL, 20.5 mM
Protocol: To test whether Eu^II-222Fb would enhance contrast in necrotic tissue, we performed T1-weighted MRI before and after intratumoral injection of Eu^II-222Fb (50 μL, 19.4 mM) into a 4T1 mammary carcinoma. The 4T1 carcinoma model is an aggressive tumor that typically develops a necrotic core,^[10] and imaging was performed when tumors reached approximately 700-1000 mg to maximize the probability of necrosis. Images were acquired before and at 3, 20, and 120 min after intratumoral injection (FIG. 3A-D). […]
To better understand the potential mechanism of differentiation, we performed an intratumoral injection of Eu^II-222Fb (50 μL, 6.9 mM) and monitored contrast enhancement over the course of 3 h before sacrificing the mouse and removing the injected tumor for analysis of Eu content by inductively coupled plasma mass spectrometry. […]
Studies in animals were carried out with the assistance of the Animal Model and Therapeutics Evaluation Core of the Barbara Ann Karmanos Cancer Institute after approval from the Wayne State University Institutional Animal Care and Use Committee. […] Animals were pooled, implanted bilaterally subcutaneously with 30-60 mg tumor fragments with a 12 gauge trocar, and imaged when tumors reached approximately 700-1000 mg in size (determined by caliper measurements: tumor mass (mg)≈[tumor length (mm)×tumor width^2 (mm^2)]/2). […]

[1] = In vivo T1-weighted MRI after intravenous, intraperitoneal and subcutaneous injection; parameters: species or system mouse; settings: liver, kidneys, bladder; equivalent dose for Gd control
Protocol: To test our hypothesis regarding the in vivo response of Eu^II-222, we acquired T1-weighted images of mice after administering Eu^II-222 (0.1 mL, 4 mM, europium dose of 3 mg/kg) through intravenous, intraperitoneal, and subcutaneous injections (FIG. 8). Mice were imaged prior to injection and at 3 and 8 min to compare responses with the three injection types. […] Although this observation is inconsistent with the low oxygen content of venous blood (relative to the peritoneal cavity), the circulation time of blood in a mouse is approximately 8 s (38). […] Therefore, the exchange between venous and arterial blood during circulation can explain our observations.
Studies in animals were carried out with the assistance of the Animal Model and Therapeutics Evaluation Core of the Barbara Ann Karmanos Cancer Institute after approval from the Wayne State University Institutional Animal Care and Use Committee. MRI scans were performed in the Elliman Clinical Research Building at Wayne State University with a 7 T Bruker Clinscan small animal MRI scanner equipped with a 30 cm bore. […]
For intravenous injections, mice were catheterized before being anesthetized with isoflurane. […] A correction volume (0.08 mL) was added to the calculated dose volumes for intravenous injections to account for the volume of the phosphate-buffered saline within the catheter. […]

| Molecule | contrast enhancement in organs associated with clearance after intratumoral injection (4T1 mammary carcinoma) | contrast enhancement in organs associated with clearance after intravenous injection [1] |
| --- | --- | --- |
| Gd^III-1,4,7,10-tetraazacyclododecane-1,4,7,10-tetraacetate | bright with contrast within minutes of the injection | – |
| O=C([O-])CN(CCN(CC(=O)[O-])CC(=O)[O-])CCN(CC(=O)[O-])CC(=O)[O-].[Gd+3] [Gd^III-diethylenetriaminepentaacetate] | – | positive contrast enhancement was observed in the kidneys within 3 min |
